The values below come from patent publication US11130769B2 (Prelude Therapeutics Incorporated, priority 2018, dated 2021).

Where two headings read alike, the source gives them in different places.

For one test, the target named is MCL-1 (Homo sapiens (Human), UniProt Q07820). Put plainly: Cell free Mcl-1:Bim affinity assay (fluorescence polarization competition). The class given is binding. The conditions noted are these: 15 nM MCL-1, 5 nM FITC-Bim, 1 hour at room temperature, read-out: BIM_Ki. The gist of the method: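 Fluorescence polarization competition: 10-point 3-fold compound dilutions displaced 5 nM FITC-Bim from 15 nM MCL-1 over 1 h at room temperature. Ki was derived from the fitted IC50 using the Nikolovska-Coleska equation, with percent inhibition normalized to DMSO and positive controls.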
MCL-1, sequence (Q07820 whole entry): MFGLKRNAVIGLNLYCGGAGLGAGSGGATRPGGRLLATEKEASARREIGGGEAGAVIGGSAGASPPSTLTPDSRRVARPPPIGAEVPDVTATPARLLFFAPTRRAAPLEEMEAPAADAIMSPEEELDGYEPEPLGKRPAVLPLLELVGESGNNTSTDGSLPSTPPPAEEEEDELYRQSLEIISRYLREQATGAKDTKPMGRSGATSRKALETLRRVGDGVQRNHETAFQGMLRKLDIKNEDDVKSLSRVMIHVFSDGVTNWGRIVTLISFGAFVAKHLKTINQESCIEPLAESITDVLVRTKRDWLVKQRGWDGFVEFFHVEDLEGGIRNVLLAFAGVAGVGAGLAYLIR
(In general: Polarisation of emitted light reports the rotation of a fluorescent probe.)

Another test concerns H929 cells. Briefly: Cell viability assay (H929 10 FBS). In kind it is cell-based. The conditions noted are these: Homo sapiens, NCI-H929, 24 hours, read-out: H929_10FBS IC50. The gist of the method: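 ATP-based luminescence (CellTiter-Glo or ATPlite 1 Step, 30-60 min at RT) gauged viability of H929 myeloma cells after 24 h compound treatment at 37 °C. Cells plated at 4000 per well in 10% FBS RPMI 1640 supplemented with pyruvate, HEPES and glucose.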

A word on the IC50: it is the concentration at which inhibition is half-maximal.

As to `CN(C)C(=O)O[C@H]1/C=C/CN2CCC[C@H]2C(=O)NS(=O)(=O)c2ccc3c(c2)N(C[C@@H]2CC[C@H]21)C[C@@]1(CCCc2cc(Cl)ccc21)CO3` [Example 294, [(3R,6R,7S,8E,15S,25S)-6′-Chloro-16,18,18-trioxo-spiro[23-oxa-18-thia-1,11,17-triazapentacyclo[17.7.2.03,6.011,15.022,27]octacosa-8,19,21,27-tetraene-25,1′-tetralin]-7-yl] N,N-dimethylcarbamate], at MCL-1 (class symbols), the Ki lay in the range of 1 to 100 nM. Besides, in the test with H929 cells, the IC50 was under 500 nM.
As to `CN(C(=O)O[C@H]1/C=C/COC(C)(C)C(=O)NS(=O)(=O)c2ccc3c(c2)N(C[C@@H]2CC[C@H]21)C[C@@]1(CCCc2cc(Cl)ccc21)CO3)[C@H]1CCOC1` [Example 202, [(3R,6R,7S,8E,22S)-6′-Chloro-12,12-dimethyl-13,15,15-trioxo-spiro[11,20-dioxa-15-thia-1,14-diazatetracyclo[14.7.2.03,6.019,24]pentacosa-8,16,18,24-tetraene-22,1′-tetralin]-7-yl] N-methyl-N-[(3S)-tetrahydrofuran-3-yl]carbamate], on MCL-1 (class symbols), the Ki was under 1 nM. Further, the IC50 with H929 cells is under 500 nM.
`[2H]C([2H])([2H])N1C/C=C/[C@H](OC(=O)N(C)C)[C@@H]2CC[C@H]2CN2C[C@@]3(CCCc4cc(Cl)ccc43)COc3ccc(cc32)S(=O)(=O)NC(=O)C1(C)C` [Example 45, [(3R,6R,7S,8E,22S)-6′-Chloro-12,12-dimethyl-13,15,15-trioxo-11-(trideuteriomethyl)spiro[20-oxa-15-thia-1,11,14-triazatetracyclo[14.7.2.03,6.019,24]pentacosa-8,16,18,24-tetraene-22,1′-tetralin]-7-yl] N,N-dimethylcarbamate]: the Ki at MCL-1 (class symbols) is under 1 nM. Besides, in the test with H929 cells, the IC50 is under 500 nM.
Consider `COCCOC[C@@H]1CC/C=C/[C@@H](OC)[C@@H]2CC[C@H]2CN2C[C@@]3(CCCc4cc(Cl)ccc43)COc3ccc(cc32)S(=O)(=O)NC1=O` [Example 97, (3R,6R,7R,8E,12S,22S)-6′-Chloro-12-((2-methoxyethoxy)methyl)-7-methoxy-15,15-dioxo-spiro[20-oxa-15-thia-1,14-diazatetracyclo[14.7.2.03,6.019,24]pentacosa-8,16,18,24-tetraene-22,1′-tetralin]-13-one], for which the Ki at MCL-1 (class symbols) was under 1 nM. Further, the IC50 with H929 cells is over 1000 nM.
For `CC1(C)OC/C=C/[C@H](OCC(=O)N2CCC2)[C@@H]2CC[C@H]2CN2C[C@@]3(CCCc4cc(Cl)ccc43)COc3ccc(cc32)S(=O)(=O)NC1=O` [Example 279, (3R,6R,7S,8E,22S)-7-[2-(Azetidin-1-yl)-2-oxo-ethoxy]-6′-chloro-12,12-dimethyl-15,15-dioxo-spiro[11,20-dioxa-15-thia-1,14-diazatetracyclo[14.7.2.03,6.019,24]pentacosa-8,16,18,24-tetraene-22,1′-tetralin]-13-one], in that order: under 1 nM and under 500 nM.
With `CC1(C)OC/C=C/[C@H](OC(=O)N2CCOCC2)[C@@H]2CC[C@H]2CN2C[C@@]3(CCOc4cc(Cl)ccc43)COc3ccc(cc32)S(=O)(=O)NC1=O` [Example 248, [(3R,6R,7S,8E,22S)-7′-Chloro-12,12-dimethyl-13,15,15-trioxo-spiro[11,20-dioxa-15-thia-1,14-diazatetracyclo[14.7.2.03,6.019,24]pentacosa-8,16,18,24-tetraene-22,4′-chromane]-7-yl]morpholine-4-carboxylate], the Ki on MCL-1 (class symbols) was under 1 nM. The IC50 in the test on H929 cells is over 1000 nM.
Take `CC(=O)N(C)[C@H]1/C=C/COC(C)(C)C(=O)NS(=O)(=O)c2ccc3c(c2)N(C[C@@H]2CC[C@H]21)C[C@@]1(CCCc2cc(Cl)ccc21)CO3` [Example 255, N-Methyl-N-[(3R,6R,7S,8E,22S)-6′-chloro-12,12-dimethyl-13,15,15-trioxo-spiro[11,20-dioxa-15-thia-1,14-diazatetracyclo[14.7.2.03,6.019,24]pentacosa-8,16(25),17,19(24)-tetraene-22,1′-tetralin]-7-yl]acetamide]: at MCL-1 (class symbols), the Ki is 1 to 100 nM. In addition, the half-inhibitory concentration (IC50) with H929 cells was over 1000 nM.
`CN(C(=O)O[C@H]1/C=C/CN(C)C(C)(C)C(=O)NS(=O)(=O)c2ccc3c(c2)N(C[C@@H]2CC[C@H]21)C[C@@]1(CCCc2cc(Cl)ccc21)CO3)[C@H]1CCOC1` [Example 226, [(3R,6R,7S,8E,22S)-6′-Chloro-11,12,12-trimethyl-13,15,15-trioxo-spiro[20-oxa-15-thia-1,11,14-triazatetracyclo[14.7.2.03,6.019,24]pentacosa-8,16,18,24-tetraene-22,1′-tetralin]-7-yl] N-methyl-N-[(3S)-tetrahydrofuran-3-yl]carbamate]: the Ki on MCL-1 (class symbols) is under 1 nM. For the same molecule, in the test with H929 cells, the half-maximal inhibitory concentration (IC50) was under 500 nM.
In the case of `COCCN(C)C(=O)O[C@H]1/C=C/COC(C)(C)C(=O)NS(=O)(=O)c2ccc3c(c2)N(C[C@@H]2CC[C@H]21)C[C@@]1(CCCc2cc(Cl)ccc21)CO3` [Example 159, [(3R,6R,7S,8E,22S)-6′-Chloro-12,12-dimethyl-13,15,15-trioxo-spiro[11,20-dioxa-15-thia-1,14-diazatetracyclo[14.7.2.03,6.019,24]pentacosa-8,16,18,24-tetraene-22,1′-tetralin]-7-yl] N-(2-methoxyethyl)-N-methyl-carbamate], the Ki on MCL-1 (class symbols) was under 1 nM. Moreover, the IC50 in the test on H929 cells was under 500 nM.
The matching figures for `CN1CC[C@H](NC(=O)O[C@H]2/C=C/COC(C)(C)C(=O)NS(=O)(=O)c3ccc4c(c3)N(C[C@@H]3CC[C@H]32)C[C@@]2(CCCc3cc(Cl)ccc32)CO4)C1` [Example 151, [(3R,6R,7S,8E,22S)-6′-Chloro-12,12-dimethyl-13,15,15-triox-spiro[11,20-dioxa-15-thia-1,14-diazatetracyclo[14.7.2.03,6.019,24]pentacosa-8,16,18,24-tetraene-22,1′-tetralin]-7-yl] N-[(3S)-1-methylpyrrolidin-3-yl]carbamate]: under 1 nM and under 500 nM.
On to `CN1C/C=C/[C@H](OC(=O)N2CCOCC2)[C@@H]2CC[C@H]2CN2C[C@@]3(CCCc4cc(Cl)ccc43)COc3ccc(cc32)S(=O)(=O)NC(=O)C1(C)C` [Example 199, [(3R,6R,7S,8E,22S)-6′-Chloro-11,12,12-trimethyl-13,15,15-trioxo-spiro[20-oxa-15-thia-1,11,14-triazatetracyclo[14.7.2.03,6.019,24]pentacosa-8,16,18,24-tetraene-22,1′-tetralin]-7-yl]morpholine-4-carboxylate], for which the Ki at MCL-1 (class symbols) was under 1 nM. Besides, the IC50 in the test with H929 cells was under 500 nM.
With `Cc1cc(CC(=O)NS(=O)(=O)c2ccc3c(c2)N(CC2CCC2)C[C@@]2(CCCc4cc(Cl)ccc42)CO3)nn1C` [Example 15, 2-(1,5-Dimethylpyrazol-3-yl)-N-[(3S)-6′-chloro-5-(cyclobutylmethyl)spiro[2,4-dihydro-1,5-benzoxazepine-3,1′-tetralin]-7-yl]sulfonyl-acetamide], the Ki on MCL-1 (numeric values) is 8.7 nM. For the same molecule, the IC50 with H929 cells is over 1000 nM.
On to `O=C1Cc2cccc(c2)S(=O)(=O)C[C@@H]2CC[C@H]2CN2C[C@@]3(CCCc4cc(Cl)ccc43)COc3ccc(cc32)S(=O)(=O)N1` [Example 98, (3R,6R,24S)-6′-Chloro-8,8,17,17-tetraoxo-spiro[22-oxa-8,17-dithia-1,16-diazapentacyclo[16.7.2.19,13.03,6.021,26]octacosa-9(28),10,12,18(27),19,21(26)-hexaene-24,1′-tetralin]-15-one], for which the Ki at MCL-1 (class symbols) was in the range of 1 to 100 nM. The IC50 with H929 cells was over 1000 nM.
For `CN(C)C(=O)O[C@@H]1/C=C/CN(C)C(C)(C)C(=O)NS(=O)(=O)c2ccc3c(c2)N(C[C@@H]2CC[C@H]21)C[C@@]1(CCCc2cc(Cl)ccc21)CO3` [Example 200, [(3R,6R,7R,8E,22S)-6′-Chloro-11,12,12-trimethyl-13,15,15-trioxo-spiro[20-oxa-15-thia-1,11,14-triazatetracyclo[14.7.2.03,6.019,24]pentacosa-8,16,18,24-tetraene-22,1′-tetralin]-7-yl] N,N-dimethylcarbamate], the Ki on MCL-1 (class symbols) is 1 to 100 nM. Besides, the half-maximal inhibitory concentration (IC50) with H929 cells is under 500 nM.
Take `CC(C)CNC(=O)O[C@H]1/C=C/COC(C)(C)C(=O)NS(=O)(=O)c2ccc3c(c2)N(C[C@@H]2CC[C@H]21)C[C@@]1(CCCc2cc(Cl)ccc21)CO3` [Example 182, [(3R,6R,7S,8E,22S)-6′-Chloro-12,12-dimethyl-13,15,15-trioxo-spiro[11,20-dioxa-15-thia-1,14-diazatetracyclo[14.7.2.03,6.019,24]pentacosa-8,16,18,24-tetraene-22,1′-tetralin]-7-yl] N-isobutylcarbamate]: at MCL-1 (class symbols), the Ki was under 1 nM. Moreover, the IC50 in the test with H929 cells is under 500 nM.
In the case of `CCO[C@@H]1CCN(C(=O)O[C@H]2/C=C/COC3(CCC3)C(=O)NS(=O)(=O)c3ccc4c(c3)N(C[C@@H]3CC[C@H]32)C[C@@]2(CCCc3cc(Cl)ccc32)CO4)C1` [Example 228, [(3R,6R,7S,8E,22S)-6′-Chloro-12,12-(1,3-propylene)-13,15,15-trioxo-spiro[11,20-dioxa-15-thia-1,14-diazatetracyclo[14.7.2.03,6.019,24]pentacosa-8,16,18,24-tetraene-22,1′-tetralin]-7-yl] (3R)-3-ethoxypyrrolidine-1-carboxylate], on MCL-1 (class symbols), the Ki is under 1 nM. The IC50 in the test with H929 cells was under 500 nM.
As to `O=C1Cc2cccc(c2)OC[C@@H]2CC[C@H]2CN2C[C@@]3(CCCc4cc(Cl)ccc43)COc3ccc(cc32)S(=O)(=O)N1` [Example 18, (3R,6R,24S)-6′-Chloro-17,17-dioxo-spiro[8,22-dioxa-17λ^6-thia-1,16-diazapentacyclo[16.7.2.1^9,13.0^3,6.0^21,26]octacosa-9(28),10,12,18(27),19,21(26)-hexaene-24,1′-tetralin]-15-one], the Ki on MCL-1 (numeric values) is 1.4 nM. Moreover, in the test on H929 cells, the half-maximal inhibitory concentration (IC50) was over 1000 nM.
